Legend:
Experiment in all cases: Binding parameters of ATP by Scatchard plot using BODIPY-FL-ATP
full-length AsphyA = target: T1, full-length AsphyA (Avena sativa, UniProt P06593); conditions: as restated in Discussion; Scatchard plot with BODIPY-FL-ATP; read-out: Kd value (ATP-binding site)
T1 construct: Full-length phytochrome genes of AsPHYA; made in house; host or cells: Pichia pastoris GS115
T1 sequence (P06593 1-1129): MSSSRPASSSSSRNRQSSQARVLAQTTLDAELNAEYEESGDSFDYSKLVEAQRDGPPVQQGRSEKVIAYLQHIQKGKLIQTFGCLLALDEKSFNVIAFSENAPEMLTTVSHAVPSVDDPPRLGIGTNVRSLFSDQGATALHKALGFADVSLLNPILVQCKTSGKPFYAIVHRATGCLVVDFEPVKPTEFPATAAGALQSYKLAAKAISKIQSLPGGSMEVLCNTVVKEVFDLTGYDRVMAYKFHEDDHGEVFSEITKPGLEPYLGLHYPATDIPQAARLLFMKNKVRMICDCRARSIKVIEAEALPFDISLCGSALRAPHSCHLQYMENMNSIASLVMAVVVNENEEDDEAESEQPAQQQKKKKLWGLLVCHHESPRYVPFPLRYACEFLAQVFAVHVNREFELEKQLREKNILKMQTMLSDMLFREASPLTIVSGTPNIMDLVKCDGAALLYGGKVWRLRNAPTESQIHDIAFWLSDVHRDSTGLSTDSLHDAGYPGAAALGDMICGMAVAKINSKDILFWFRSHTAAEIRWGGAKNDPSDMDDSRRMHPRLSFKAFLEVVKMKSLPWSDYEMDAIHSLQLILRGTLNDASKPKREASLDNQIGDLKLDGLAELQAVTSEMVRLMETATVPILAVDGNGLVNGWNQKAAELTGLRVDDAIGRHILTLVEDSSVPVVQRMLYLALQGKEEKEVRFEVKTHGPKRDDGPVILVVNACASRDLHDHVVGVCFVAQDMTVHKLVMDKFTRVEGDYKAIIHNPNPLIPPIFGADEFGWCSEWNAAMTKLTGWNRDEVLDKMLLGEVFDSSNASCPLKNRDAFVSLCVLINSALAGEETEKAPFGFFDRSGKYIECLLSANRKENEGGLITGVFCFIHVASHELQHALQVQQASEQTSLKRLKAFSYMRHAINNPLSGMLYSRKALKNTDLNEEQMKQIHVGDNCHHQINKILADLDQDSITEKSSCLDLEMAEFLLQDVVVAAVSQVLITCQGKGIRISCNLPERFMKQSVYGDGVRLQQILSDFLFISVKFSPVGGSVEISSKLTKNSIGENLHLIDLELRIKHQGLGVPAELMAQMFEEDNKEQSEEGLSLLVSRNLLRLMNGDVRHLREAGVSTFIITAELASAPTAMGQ
Experimental: (§1) To estimate dissociation constant (Kd) and the number of binding sites (n) of ATP in AsphyA proteins, an ATP analogue BODIPY-FL-ATP (BODIPY FL 2′-(or-3′)-O-(N-(2-aminoethyl)urethane) adenosine triphosphate; Molecular Probes) was used. 0.5 μM AsphyA proteins were incubated with increasing concentration of BODIPY-FL-ATP (0.5–5 μM) for 10 min at 30 °C, and free (unbound) ATP analogue was separated from the ATP analogue-protein complex by using Amicon Ultra Centrifugal Filter with MWCO of 10,000 Da for 5 min at 4,000g. The spectrophotometric absorbance was then measured to determine the BODIPY-FL-ATP concentrations within flow-through and the complex solutions by using Shimadzu UV-1800 spectrophotometer. […] The concentrations of BODIPY-FL-ATP were also double-checked by measuring the emission intensity of BODIPY fluorophore at the excitation wavelength of 500 nm and emission wavelength of 515 nm. The fluorescence of free BODIPY-FL-ATP in the absence of any protein component was used as a linear standard curve. The Kd and n values were then calculated by a Scatchard plot of r/[BODIPY-FL-ATP]free versus r, where r is the molar ratio of [BODIPY-FL-ATP]bound to [AsphyA]total.
(§2) Supplementary Figure 12. Determination of binding parameters of ATP in AsphyA proteins. The number of binding sites (n) and dissociation constant (Kd) of ATP in AsphyA proteins were determined by Scatchard plots using an ATP analogue, BODIPY-FL-ATP (BODIPY® FL 2′-(or-3′)-O-(N-(2-aminoethyl)urethane) adenosine triphosphate). The n and Kd values were calculated from the slopes (-1/Kd) and x-axis intercepts (n) of the Scatchard plot of r/[BODIPY-FL-ATP]free versus r, where r was the molar ratio of [BODIPY-FL-ATP]bound to [AsphyA]total. The n values of full-length (FL) AsphyA and photosensory core (66-610) were both calculated at around one per polypeptide, and the Kd values were calculated at approximately 0.87 × 10^-6 M for FL-AsphyA, 0.72 × 10^-6 M for […]
(§3) level, possibly due to too low ATP binding.
(§4) (1 picture or pasted object on this page, not shown here)

[1] = target: T2, photosensory core of AsphyA (66-610) (Avena sativa, UniProt P06593); conditions: as restated in Discussion; Scatchard plot with BODIPY-FL-ATP; read-out: Kd value (ATP-binding site)
T2 construct: the PAS-GAF-PHY photosensory core (66–610aa) were also cloned into pPIC3.5K; made in house; host or cells: Pichia pastoris GS115
T2 sequence (P06593 66-610): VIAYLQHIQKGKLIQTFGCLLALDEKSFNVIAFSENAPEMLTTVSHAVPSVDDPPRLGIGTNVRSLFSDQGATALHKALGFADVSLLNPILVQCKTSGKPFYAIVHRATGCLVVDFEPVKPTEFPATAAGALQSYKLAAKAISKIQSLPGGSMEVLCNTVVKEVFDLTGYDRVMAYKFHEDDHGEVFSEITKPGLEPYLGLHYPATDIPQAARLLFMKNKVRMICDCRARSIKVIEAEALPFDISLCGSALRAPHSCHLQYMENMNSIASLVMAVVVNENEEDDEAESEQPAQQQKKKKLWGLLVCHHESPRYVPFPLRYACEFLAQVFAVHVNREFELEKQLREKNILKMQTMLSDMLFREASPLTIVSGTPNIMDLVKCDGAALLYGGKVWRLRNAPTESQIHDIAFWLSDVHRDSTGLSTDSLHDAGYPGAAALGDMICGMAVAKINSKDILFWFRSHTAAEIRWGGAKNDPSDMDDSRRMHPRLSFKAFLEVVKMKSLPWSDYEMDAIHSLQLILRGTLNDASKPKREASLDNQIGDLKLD
Experimental: as §1, §2, §3, §4

K411L AsphyA mutant = target: T3, K411L AsphyA mutant (Avena sativa, UniProt P06593, K411L)
T3 construct: After preparing purified full-length AsphyA mutants; made in house; host or cells: Pichia pastoris GS115
Experimental: as §1, §2, §3, §4

T418D AsphyA mutant = target: T4, T418D AsphyA mutant (Avena sativa, UniProt P06593, T418D)
T4 construct: After preparing purified full-length AsphyA mutants; made in house; host or cells: Pichia pastoris GS115
Experimental: as §1, §2, §3, §4

D422R AsphyA mutant = target: T5, D422R AsphyA mutant (Avena sativa, UniProt P06593, D422R); conditions: Scatchard plot with BODIPY-FL-ATP; result in words
T5 construct: After preparing purified full-length AsphyA mutants; made in house; host or cells: Pichia pastoris GS115
Experimental: as §1, §2, §3, §4

T5 sequence (P06593 whole entry D422R): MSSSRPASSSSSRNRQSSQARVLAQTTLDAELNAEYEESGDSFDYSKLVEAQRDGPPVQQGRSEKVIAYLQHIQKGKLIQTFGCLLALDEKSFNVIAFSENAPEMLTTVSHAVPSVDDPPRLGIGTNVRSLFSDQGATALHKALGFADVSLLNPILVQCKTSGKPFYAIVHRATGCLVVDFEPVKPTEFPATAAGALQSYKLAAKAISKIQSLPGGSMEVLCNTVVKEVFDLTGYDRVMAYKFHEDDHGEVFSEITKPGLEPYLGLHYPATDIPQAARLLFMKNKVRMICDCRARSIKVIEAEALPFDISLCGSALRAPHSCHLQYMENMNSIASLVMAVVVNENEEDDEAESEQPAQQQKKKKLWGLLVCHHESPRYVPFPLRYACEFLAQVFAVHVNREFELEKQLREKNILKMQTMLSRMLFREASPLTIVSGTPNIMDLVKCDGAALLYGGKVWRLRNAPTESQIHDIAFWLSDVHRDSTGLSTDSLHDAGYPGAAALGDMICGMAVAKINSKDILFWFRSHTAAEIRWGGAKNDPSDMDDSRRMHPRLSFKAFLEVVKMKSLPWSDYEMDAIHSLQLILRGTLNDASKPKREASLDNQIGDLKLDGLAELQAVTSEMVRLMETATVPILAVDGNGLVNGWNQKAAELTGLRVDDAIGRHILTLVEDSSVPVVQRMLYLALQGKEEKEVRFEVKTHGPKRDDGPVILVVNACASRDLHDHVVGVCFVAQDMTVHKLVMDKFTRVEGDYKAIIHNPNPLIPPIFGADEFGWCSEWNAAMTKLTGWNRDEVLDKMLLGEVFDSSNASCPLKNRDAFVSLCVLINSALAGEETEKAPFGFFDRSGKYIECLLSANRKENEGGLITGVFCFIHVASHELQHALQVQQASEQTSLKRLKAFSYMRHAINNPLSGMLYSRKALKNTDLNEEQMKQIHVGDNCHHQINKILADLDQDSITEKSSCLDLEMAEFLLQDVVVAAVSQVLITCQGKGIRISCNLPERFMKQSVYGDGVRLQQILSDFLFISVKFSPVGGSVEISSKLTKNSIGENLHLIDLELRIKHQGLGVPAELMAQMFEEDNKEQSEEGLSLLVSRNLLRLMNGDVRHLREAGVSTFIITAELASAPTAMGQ
T4 sequence (P06593 whole entry T418D): as the sequence (P06593 whole entry D422R) above, with T418D, R422D counted along it
T3 sequence (P06593 whole entry K411L): as the sequence (P06593 whole entry D422R) above, with K411L, R422D counted along it

Structure (SMILES): Nc1ncnc2c1ncn2[C@@H]1O[C@H](COP(=O)(O)OP(=O)(O)OP(=O)(O)O)[C@@H](O)[C@H]1O [ATP]
- Kd (full-length AsphyA): 870 nM
- Kd [1]: 720 nM
- Kd (K411L AsphyA mutant): ~1320 nM
- Kd (T418D AsphyA mutant): 4760 nM
- dissociation constant (Kd) of ATP (D422R AsphyA mutant): could not obtain the Kd value at micromolar level

— PMC4869175, “Evidence that phytochrome functions as a protein kinase in plant light signalling” (Nature Communications, 2016)
